The term EC50 denotes the concentration that produces a half-maximal response. Broadly, the Ki is a dissociation constant, usually derived from enzyme kinetics or from competition with a known ligand.

We go through ten compounds from article PMC8865417, “Receptor Interaction Profiles of 4-Alkoxy-3,5-Dimethoxy-Phenethylamines (Mescaline Derivatives) and Related Amphetamines” (Frontiers in Pharmacology, 2022).

Test [1] deals with humans. The conditions noted are these: cited from earlier work.
The target of test [2] is human 5-HT2B receptor (Homo sapiens, UniProt P41595). The conditions noted are these: for EC50: h5-HT2B Activation potency EC50 ± SD, HEK 293 cells, calcium FLIPR, mean ± SD; for Emax: HEK293, read-out: h5-HT2B Activation efficacy max ± SD, relative to 5-HT = 100%.
For test [3], the target named is T1, hNET (Homo sapiens, UniProt P23975).
T1 construct: expressed in transfected cells; host or cells: HEK 293 cells (membrane preparations)
Kind of test: Radioligand binding at hNET (N-methyl-[3H]nisoxetine).

In test [4] the target is T2, dopaminergic hD2 receptor (Homo sapiens, UniProt P14416).
T2 construct: expressed in transfected cells; host or cells: HEK 293 cells (membrane preparations)
Nature of the test: Radioligand binding at dopaminergic hD2 receptor ([3H]spiperone).

In test [5] the target is T3, hSERT (Homo sapiens, UniProt P31645).
T3 construct: expressed in transfected cells; host or cells: HEK 293 cells (membrane preparations)
Kind of test: Radioligand binding at hSERT ([3H]citalopram).

The target of test [6] is human 5-HT2A receptor (Homo sapiens, UniProt P28223). Conditions: for Emax: NIH3T3, read-out: h5-HT2A Activation efficacy max ± SD, relative to 5-HT = 100%.
For test [7], the target named is T4, mouse TAAR1 (Mus musculus, UniProt Q923Y8).
T4 construct: expressed in transfected cells; host or cells: HEK 293 cells (membrane preparations)
Nature of the test: Radioligand binding at mouse TAAR1 ([3H]RO5166017).

Test [8] addresses T5, rat TAAR1 (Rattus norvegicus, UniProt Q923Y9).
T5 construct: expressed in transfected cells; host or cells: HEK 293 cells (membrane preparations)
Nature of the test: Radioligand binding at rat TAAR1 ([3H]RO5166017).

Test [9] deals with T6, h5-HT1A receptor (Homo sapiens, UniProt P08908).
T6 construct: expressed in transfected cells; host or cells: HEK 293 cells (membrane preparations)
T6 sequence (P08908 1-422): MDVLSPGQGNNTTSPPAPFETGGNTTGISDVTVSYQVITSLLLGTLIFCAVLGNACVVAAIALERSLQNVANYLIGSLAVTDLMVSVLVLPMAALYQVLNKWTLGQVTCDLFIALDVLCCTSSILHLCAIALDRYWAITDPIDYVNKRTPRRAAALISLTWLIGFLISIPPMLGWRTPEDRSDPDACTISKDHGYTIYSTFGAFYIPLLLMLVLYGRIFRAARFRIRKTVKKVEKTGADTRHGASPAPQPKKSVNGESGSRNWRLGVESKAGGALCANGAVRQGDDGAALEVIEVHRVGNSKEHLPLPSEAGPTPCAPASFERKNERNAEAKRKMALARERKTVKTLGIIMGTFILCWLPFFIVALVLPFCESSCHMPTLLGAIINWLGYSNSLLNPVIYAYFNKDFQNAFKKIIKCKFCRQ
Kind of test: Radioligand binding at h5-HT1A receptor ([3H]8-OH-DPAT).

Test [10] deals with T7, hDAT (Homo sapiens, UniProt Q01959).
T7 construct: expressed in transfected cells; host or cells: HEK 293 cells (membrane preparations)
Nature of the test: Radioligand binding at hDAT ([3H]WIN35,428).

Test [11] deals with T8, hα1A adrenergic receptor (Homo sapiens, UniProt P35348).
T8 construct: expressed in transfected cells; host or cells: Chinese hamster ovary cells (membrane preparations)
T8 sequence (P35348 1-466): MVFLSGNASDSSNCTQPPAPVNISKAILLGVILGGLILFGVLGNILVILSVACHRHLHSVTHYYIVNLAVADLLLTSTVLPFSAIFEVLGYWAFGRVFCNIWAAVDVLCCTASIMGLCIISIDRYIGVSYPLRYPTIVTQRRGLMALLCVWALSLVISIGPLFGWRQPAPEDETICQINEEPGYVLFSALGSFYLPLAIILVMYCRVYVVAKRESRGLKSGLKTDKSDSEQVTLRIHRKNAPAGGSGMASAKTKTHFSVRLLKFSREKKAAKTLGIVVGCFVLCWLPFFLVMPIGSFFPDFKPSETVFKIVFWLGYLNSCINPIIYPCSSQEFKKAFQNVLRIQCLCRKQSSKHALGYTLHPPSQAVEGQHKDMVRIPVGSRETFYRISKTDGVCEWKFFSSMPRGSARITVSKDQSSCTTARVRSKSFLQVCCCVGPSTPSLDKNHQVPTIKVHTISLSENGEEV
Nature of the test: Radioligand binding at hα1A adrenergic receptor ([3H]prazosin). The conditions noted are these: mean ± SD.

In test [12] the target is T9, h5-HT2A receptor (Homo sapiens, UniProt P28223).
T9 construct: expressed in transfected cells; host or cells: HEK 293 cells (membrane preparations)
Kind of test: Radioligand binding at h5-HT2A receptor ([3H]ketanserin). The conditions noted are these: for Selectivity 5-HT2A vs. 5-HT1A / Selectivity 5-HT2A vs. 5-HT2C: binding ratio; for Ki: h5-HT2A Receptor binding Ki ± SD, [3H]ketanserin, mean ± SD.

Test [13] has as its target T10, hα2A adrenergic receptor (Homo sapiens, UniProt P08913).
T10 construct: expressed in transfected cells; host or cells: Chinese hamster lung cells (membrane preparations)
T10 sequence (P08913 1-465): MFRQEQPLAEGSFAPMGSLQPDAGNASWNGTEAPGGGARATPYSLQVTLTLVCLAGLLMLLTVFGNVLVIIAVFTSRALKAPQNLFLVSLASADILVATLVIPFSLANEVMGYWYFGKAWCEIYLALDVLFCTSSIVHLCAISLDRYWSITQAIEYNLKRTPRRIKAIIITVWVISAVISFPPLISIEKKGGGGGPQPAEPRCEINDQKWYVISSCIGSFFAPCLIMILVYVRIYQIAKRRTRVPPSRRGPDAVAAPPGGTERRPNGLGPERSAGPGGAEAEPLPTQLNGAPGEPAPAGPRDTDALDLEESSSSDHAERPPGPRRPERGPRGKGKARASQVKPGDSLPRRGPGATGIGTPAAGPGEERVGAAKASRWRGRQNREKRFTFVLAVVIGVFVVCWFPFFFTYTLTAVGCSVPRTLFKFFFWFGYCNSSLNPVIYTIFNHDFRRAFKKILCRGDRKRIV
Nature of the test: Radioligand binding at hα2A adrenergic receptor ([3H]rauwolscine).

Test [14] deals with T11, h5-HT2C receptor (Homo sapiens, UniProt P28335).
T11 construct: expressed in transfected cells; host or cells: HEK 293 cells (membrane preparations)
T11 sequence (P28335 33-458): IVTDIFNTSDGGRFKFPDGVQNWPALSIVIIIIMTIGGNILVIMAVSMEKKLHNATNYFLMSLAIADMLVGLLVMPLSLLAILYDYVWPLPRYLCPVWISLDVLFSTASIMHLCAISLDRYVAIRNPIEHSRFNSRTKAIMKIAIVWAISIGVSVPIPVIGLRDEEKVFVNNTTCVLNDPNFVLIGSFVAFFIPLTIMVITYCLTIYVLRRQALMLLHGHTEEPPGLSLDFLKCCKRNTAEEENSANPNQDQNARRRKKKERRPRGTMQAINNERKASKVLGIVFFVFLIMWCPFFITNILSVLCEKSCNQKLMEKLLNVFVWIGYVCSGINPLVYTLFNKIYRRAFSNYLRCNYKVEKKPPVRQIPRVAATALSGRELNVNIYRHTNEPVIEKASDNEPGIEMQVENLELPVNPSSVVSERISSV
Kind of test: biochemical. The conditions noted are these: [3H]mesulergine; mean ± SD; read-out: h5-HT2C Receptor binding Ki ± SD. Format: binding.

Where two headings read alike, the source gives them in different places.

T4 sequence (Q923Y8 whole entry): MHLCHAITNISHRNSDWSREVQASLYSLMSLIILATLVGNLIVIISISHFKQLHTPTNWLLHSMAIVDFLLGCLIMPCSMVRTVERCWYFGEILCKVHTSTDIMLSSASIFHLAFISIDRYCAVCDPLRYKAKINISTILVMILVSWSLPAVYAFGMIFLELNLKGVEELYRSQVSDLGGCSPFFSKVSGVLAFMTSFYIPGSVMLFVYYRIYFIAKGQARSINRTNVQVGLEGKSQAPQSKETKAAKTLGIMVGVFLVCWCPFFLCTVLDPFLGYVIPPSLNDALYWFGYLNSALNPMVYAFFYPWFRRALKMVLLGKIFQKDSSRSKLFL
T2 sequence (P14416 whole entry): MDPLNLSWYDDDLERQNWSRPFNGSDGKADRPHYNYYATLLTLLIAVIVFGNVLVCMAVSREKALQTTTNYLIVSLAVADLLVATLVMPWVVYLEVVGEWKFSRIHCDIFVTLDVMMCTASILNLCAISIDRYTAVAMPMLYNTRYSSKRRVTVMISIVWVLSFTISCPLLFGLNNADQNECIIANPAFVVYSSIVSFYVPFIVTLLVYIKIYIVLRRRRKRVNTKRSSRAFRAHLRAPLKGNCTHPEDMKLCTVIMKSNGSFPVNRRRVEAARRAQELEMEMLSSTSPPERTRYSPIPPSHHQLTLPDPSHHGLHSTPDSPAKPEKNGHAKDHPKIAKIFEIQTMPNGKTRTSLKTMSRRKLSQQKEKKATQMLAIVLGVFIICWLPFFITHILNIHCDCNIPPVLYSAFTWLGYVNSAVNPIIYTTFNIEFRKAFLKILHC
T5 sequence (Q923Y9 whole entry): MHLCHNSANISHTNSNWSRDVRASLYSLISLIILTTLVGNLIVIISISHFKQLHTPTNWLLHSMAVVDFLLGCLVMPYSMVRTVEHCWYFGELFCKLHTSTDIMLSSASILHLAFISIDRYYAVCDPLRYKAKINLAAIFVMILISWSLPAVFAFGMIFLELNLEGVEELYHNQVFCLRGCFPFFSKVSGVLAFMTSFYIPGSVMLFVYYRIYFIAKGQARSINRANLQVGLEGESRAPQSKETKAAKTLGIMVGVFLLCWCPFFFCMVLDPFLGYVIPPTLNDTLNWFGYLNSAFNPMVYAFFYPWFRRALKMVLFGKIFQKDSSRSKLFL
T1 sequence (P23975 whole entry): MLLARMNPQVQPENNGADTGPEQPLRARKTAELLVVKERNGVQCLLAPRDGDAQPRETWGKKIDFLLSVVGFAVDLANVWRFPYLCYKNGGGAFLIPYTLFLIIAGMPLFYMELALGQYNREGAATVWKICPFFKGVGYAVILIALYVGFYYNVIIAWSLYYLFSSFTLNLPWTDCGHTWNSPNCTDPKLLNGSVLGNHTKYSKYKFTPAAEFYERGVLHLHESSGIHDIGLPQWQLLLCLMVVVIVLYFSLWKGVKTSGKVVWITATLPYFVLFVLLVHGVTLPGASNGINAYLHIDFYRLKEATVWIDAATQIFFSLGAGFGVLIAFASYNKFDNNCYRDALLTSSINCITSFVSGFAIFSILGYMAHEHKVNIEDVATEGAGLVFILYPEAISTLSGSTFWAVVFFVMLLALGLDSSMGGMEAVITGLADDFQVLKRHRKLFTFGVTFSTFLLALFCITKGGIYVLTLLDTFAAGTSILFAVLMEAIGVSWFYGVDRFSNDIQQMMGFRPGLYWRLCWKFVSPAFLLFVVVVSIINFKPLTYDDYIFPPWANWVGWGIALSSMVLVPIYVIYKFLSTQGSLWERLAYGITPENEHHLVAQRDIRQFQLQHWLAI
T9 sequence (P28223 whole entry): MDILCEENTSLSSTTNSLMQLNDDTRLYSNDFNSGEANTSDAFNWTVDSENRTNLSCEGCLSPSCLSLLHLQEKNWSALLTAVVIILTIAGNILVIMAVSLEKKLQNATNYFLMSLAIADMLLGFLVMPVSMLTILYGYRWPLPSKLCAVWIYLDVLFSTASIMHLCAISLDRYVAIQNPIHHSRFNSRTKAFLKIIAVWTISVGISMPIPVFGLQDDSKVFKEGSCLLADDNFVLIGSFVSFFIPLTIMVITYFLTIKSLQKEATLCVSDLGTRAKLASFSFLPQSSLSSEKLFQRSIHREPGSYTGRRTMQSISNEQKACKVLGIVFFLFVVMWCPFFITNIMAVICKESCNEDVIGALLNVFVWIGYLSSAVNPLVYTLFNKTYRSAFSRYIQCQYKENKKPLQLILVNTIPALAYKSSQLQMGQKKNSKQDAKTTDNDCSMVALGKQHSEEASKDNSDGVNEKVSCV
human 5-HT2A receptor, sequence (P28223 whole entry): as above
T7 sequence (Q01959 whole entry): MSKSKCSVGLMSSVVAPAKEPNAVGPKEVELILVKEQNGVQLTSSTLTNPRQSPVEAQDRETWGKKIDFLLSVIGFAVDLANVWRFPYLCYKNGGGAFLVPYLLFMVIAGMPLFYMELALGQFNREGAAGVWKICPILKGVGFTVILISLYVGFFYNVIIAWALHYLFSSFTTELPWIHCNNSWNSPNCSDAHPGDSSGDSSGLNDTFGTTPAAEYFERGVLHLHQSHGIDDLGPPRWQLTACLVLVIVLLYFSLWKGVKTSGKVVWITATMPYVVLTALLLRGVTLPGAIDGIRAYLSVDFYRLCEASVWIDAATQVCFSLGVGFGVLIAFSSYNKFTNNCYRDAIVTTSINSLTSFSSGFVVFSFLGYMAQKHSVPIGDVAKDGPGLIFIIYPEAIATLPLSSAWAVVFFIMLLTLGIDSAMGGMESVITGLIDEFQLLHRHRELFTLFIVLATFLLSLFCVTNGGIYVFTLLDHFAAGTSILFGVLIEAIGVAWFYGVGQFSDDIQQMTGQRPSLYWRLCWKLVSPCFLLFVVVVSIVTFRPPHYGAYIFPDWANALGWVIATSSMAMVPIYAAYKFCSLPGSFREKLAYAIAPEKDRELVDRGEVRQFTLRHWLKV
T3 sequence (P31645 whole entry): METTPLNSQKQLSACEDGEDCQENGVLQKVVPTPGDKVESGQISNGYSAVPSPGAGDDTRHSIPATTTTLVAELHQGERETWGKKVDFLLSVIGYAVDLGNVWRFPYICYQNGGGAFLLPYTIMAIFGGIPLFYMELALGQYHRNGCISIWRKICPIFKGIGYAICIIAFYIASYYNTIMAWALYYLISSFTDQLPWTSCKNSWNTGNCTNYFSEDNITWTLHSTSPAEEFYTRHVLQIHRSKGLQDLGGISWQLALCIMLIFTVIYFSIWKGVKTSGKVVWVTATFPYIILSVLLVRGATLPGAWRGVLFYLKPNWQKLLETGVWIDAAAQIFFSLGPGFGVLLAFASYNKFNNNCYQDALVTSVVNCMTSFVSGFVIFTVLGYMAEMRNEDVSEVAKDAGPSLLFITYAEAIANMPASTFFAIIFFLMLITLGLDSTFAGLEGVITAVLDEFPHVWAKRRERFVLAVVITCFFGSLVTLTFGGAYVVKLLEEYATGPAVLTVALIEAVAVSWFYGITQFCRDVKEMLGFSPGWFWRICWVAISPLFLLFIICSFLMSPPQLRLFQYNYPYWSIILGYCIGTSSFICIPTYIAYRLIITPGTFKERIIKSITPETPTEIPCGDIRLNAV
human 5-HT2B receptor, sequence (P41595 whole entry): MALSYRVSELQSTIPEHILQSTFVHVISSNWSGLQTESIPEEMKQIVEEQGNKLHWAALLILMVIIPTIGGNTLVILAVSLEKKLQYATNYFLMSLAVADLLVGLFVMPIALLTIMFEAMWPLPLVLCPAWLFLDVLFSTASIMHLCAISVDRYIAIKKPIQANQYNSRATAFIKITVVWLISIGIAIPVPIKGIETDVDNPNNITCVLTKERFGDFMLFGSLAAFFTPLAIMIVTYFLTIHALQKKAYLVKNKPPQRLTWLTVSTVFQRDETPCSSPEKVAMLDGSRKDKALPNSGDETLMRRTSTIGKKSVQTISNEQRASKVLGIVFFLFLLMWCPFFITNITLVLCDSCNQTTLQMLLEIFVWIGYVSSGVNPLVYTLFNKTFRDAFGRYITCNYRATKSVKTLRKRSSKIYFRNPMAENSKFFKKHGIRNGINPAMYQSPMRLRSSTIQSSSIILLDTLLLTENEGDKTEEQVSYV

`COc1cc(CC(C)N)c(OC)cc1Br` (centres unmarked) [compound 2, 4-bromo-2,5-dimethoxyamphetamine, reference compound]: the “Psychedelic / active dose in humans” value in test [1] (ref Shulgin and Shulgin 1991) is 1 to 3 mg.

Consider `COc1cc(CC(C)N)c(OC)cc1C` (centres unmarked) [compound 7, 2,5-dimethoxy-4-methylamphetamine, reference compound], for which the “Psychedelic / active dose in humans” value in test [1] (ref Shulgin and Shulgin 1991) is 3 to 10 mg.

In the case of `COc1cc(CCN)cc(OC)c1SC` [compound 10, 4-thiomescaline, reference compound], in test [1] (ref Shulgin and Shulgin 1991), the “Increase in human potency compared to mescaline (5)” value is reported as 10 fold and the “Psychedelic / active dose in humans” value was 20 to 40 mg.

Consider `COc1cc(CCN)cc(OC)c1OC(F)F` [compound 12, 4-difluoromethoxy-3,5-dimethoxyphenethylamine], for which the figures for the EC50 in test [2] and in test [6] were over 10000 nM and 1500 nM, respectively. Also, the Ki in [3] was over 9.7 µM; in test [4] it was over 6.3 µM; in [5], over 7.5 µM; in test [7] it was over 4.2 µM; in test [8] it was 0.88 ± 0.18 µM; in test [9] it was 2.5 µM. For the same compound, the Ki was over 8.5 µM in test [10]; 8 µM in test [11]; 3.5 µM in test [12]; 1700 nM in [13]; 2.8 µM in test [14]. For the same compound, in test [1] (ref Trachsel 2012), the “Increase in human potency compared to mescaline (5)” value was 4 fold. In addition, the Emax in [6] lay within 85 to 94%. Also, in test [12], the “Selectivity 5-HT2A vs. 5-HT1A” value is 0.7. Besides, the “Selectivity 5-HT2A vs. 5-HT2C” value in test [12] turned out to be 0.8.

With `COc1cc(CCN)cc(OC)c1OCCF` [compound 16, 3,5-dimethoxy-4-(2-fluoroethoxy)phenethylamine], the Emax is 29 ± 7% in test [2] and 85 to 94% in test [6]. For the same compound, the EC50 was found to be 2300 nM in test [2] and 5700 nM in [6]. Also, the inhibitory constant (Ki) in test [3] was over 9.7 µM; in test [4] it was over 6.3 µM; in test [5], over 7.5 µM; in [7], over 4.2 µM; in [8], over 4 µM; in [9], over 5.6 µM. Further, the Ki in test [10] is over 8.5 µM; in test [11], over 8.7 µM; in [12] it was over 12 µM; in [13] it was 3700 nM; in test [14], 5.7 µM.

As for `COc1cc(CCN)cc(OC)c1OCC(F)F` [compound 17, 4-(2,2-difluoroethoxy)-3,5-dimethoxyphenethylamine], the Emax in [2] is 25 ± 7%; in test [6], 44 to 78%. Moreover, the EC50 in test [2] came to 1700 nM; in [6], 1300 nM. The Ki was over 9.7 µM in test [3]; over 6.3 µM in test [4]; over 7.5 µM in test [5]; over 4.2 µM in [7]; 2.1 µM in [8]; over 5.6 µM in [9]. For the same compound, the Ki in test [10] is over 8.5 µM; in test [11], over 8.7 µM; in test [12], 2.9 µM; in [13], 2700 nM; in test [14], 2.7 µM. In addition, the “Selectivity 5-HT2A vs. 5-HT2C” value in test [12] was determined as 0.9.

As to `COc1cc(CC(C)N)cc(OC)c1OCC(F)F` (centres unmarked) [compound 19, 4-(2,2-difluoroethoxy)-3,5-dimethoxyamphetamine], the Emax in test [2] fell in the range of 18 to 29%; in [6], 86 to 102%. In addition, the EC50 worked out at 260 ± 30 nM in test [2] and 120 ± 20 nM in [6]. Further, the Ki in test [3] was over 9.7 µM; in test [4] it was over 6.3 µM; in test [5] it was over 7.5 µM; in test [7], over 4.2 µM; in test [8], 3.9 µM; in test [9], over 5.6 µM. The Ki is over 8.5 µM in [10]; over 8.7 µM in [11]; 1.5 µM in test [12]; over 5100 nM in test [13]; 2.6 µM in [14]. Besides, the “Selectivity 5-HT2A vs. 5-HT2C” value in [12] came to 1.7.

As to `COc1cc(CC(C)N)cc(OC)c1OCCF` (centres unmarked) [compound 20, 3,5-dimethoxy-4-(2-fluoroethoxy)amphetamine], the values for the Emax in test [2] and in [6] were 18 to 29% and 86 to 102%, respectively. Also, the values for the EC50 in [2] and in [6] were 800 ± 240 nM and 120 ± 40 nM, respectively. Further, the inhibitory constant (Ki) is over 9.7 µM in [3]; over 6.3 µM in [4]; over 7.5 µM in [5]; over 4.2 µM in test [7]; over 4.7 µM in [8]; over 5.6 µM in test [9]. The inhibition constant (Ki) in test [10] was over 8.5 µM; in test [11] it was over 8.7 µM; in test [12], 12 µM; in [13], over 5100 nM; in [14], 8.4 µM. Moreover, the “Selectivity 5-HT2A vs. 5-HT1A” value in test [12] is over 1.

For the compound `COc1cc(CCN)cc(OC)c1OC(C)C` [compound 22, 3,5-dimethoxy-4-isopropoxyphenethylamine], the EC50 was over 10000 nM in [2] and 1900 nM in [6]. Further, the Ki was over 9.7 µM in [3]; over 6.3 µM in [4]; over 7.5 µM in test [5]; over 4.2 µM in test [7]; over 4.7 µM in [8]; over 5.6 µM in test [9]. In addition, the Ki in test [10] is over 8.5 µM; in test [11] it was over 8.7 µM; in test [12], 6.2 µM; in test [13] it was 1200 nM; in [14] it was 5.4 µM. Also, the “Selectivity 5-HT2A vs. 5-HT1A” value in test [12] is over 1. Also, the “Selectivity 5-HT2A vs. 5-HT2C” value in [12] is 0.9.

Take `COc1cc(CC(C)N)cc(OC)c1OCCCF` (centres unmarked) [compound 27, 3,5-dimethoxy-4-(3-fluoropropoxy)-amphetamine]: the EC50 in [2] was over 10000 nM; in test [6], 57 ± 2 nM. In addition, the Ki in test [3] is over 9.7 µM; in [4], over 6.3 µM; in test [5] it was over 7.5 µM; in test [7] it was 2.8 µM; in [8], over 4.7 µM; in test [9], over 5.6 µM. Besides, the Ki is over 8.5 µM in test [10]; over 8.7 µM in test [11]; 2.6 µM in [12]; over 5100 nM in test [13]; 4.4 µM in test [14]. Moreover, the “Selectivity 5-HT2A vs. 5-HT2C” value in test [12] is listed as 1.7.
